Measured values published in US20250346943A1, “DEGRADER COMPOUNDS OF QSOX1 mRNA” (UNIVERSITY OF FLORIDA RESEARCH FOUNDATION, INCORPORATED, priority 2022, published 2025).

Assays:
SQSTM1 mRNA = SQSTM1 mRNA abundance by RT-qPCR in MDA-MB-231 cells; format: cell-based, human; conditions: 48 h treatment
Procedure: (§1) Analysis of mRNA Abundance by RT-qPCR. Unless stated otherwise, all RT-qPCR experiments were performed to measure nascent RNA levels by using Click-it Nascent RNA Capture Kit (Cat #C10365, Thermo Fisher) per the manufacturer's protocols. Briefly, cells were treated with 0.2 mM of ethynyl uridine (EU) in growth medium for 16 h, after which the medium was replaced with fresh growth medium lacking EU. Compound or ASO treatment was performed at the same time of initial EU treatment, and compounds were replenished after replacing the medium to remove EU. Total RNA was extracted by using a Zymo Quick-RNA Miniprep Kit as per manufacturer's protocol with DNase treatment. The click reaction and pull-down of nascent RNA were performed as described in “In Vitro Chemical-Crosslinking and Isolation by Pull-down (Chem-CLIP) with Fluorescently Labeled RNA”. Reverse transcription (RT) was performed by using 300 ng total RNA and a QScript cDNA synthesis kit (QuantaBio) per manufacturer's protocols qPCR was performed in 384-well plates by using Power SYBR Green Master Mix (Life Technologies) on a QuantStudioS™ Cycler (Applied Biosystems) using the “Comparative Ct with Melt” method.

QSOX1-a mRNA = QSOX1-a mRNA abundance by RT-qPCR in MDA-MB-231 cells; format: cell-based, human; parameters: dose or concentration left out as unconfirmed; conditions: at the, the highest dose
Procedure: as §1

QSOX1 mRNA = test: Chem-CLIP pull-down of QSOX1 mRNA in live cells, RT-qPCR (dose and time dependence); format: cell-based, human
Procedure: (§2) Chemical-Cross-linking and Isolation by Pull-down (Chem-CLIP) in Live Cells. MDA-MB-231 cells were seeded in 60 mm dishes and allowed to reach ˜80% confluency. The cells were then treated with 20 μM of compound in growth medium and incubated for 16 h. Cells were washed with 1×DPBS and irradiated with UV light for 10 min. Total RNA was harvested using a Zymo Quick-RNA Miniprep Kit per the manufacturer's protocol with DNase treatment. Total RNA was chemically fragmented by using an NEBNext Magnesium RNA Fragmentation Module (E6150S) per manufacturer's protocol to achieve final lengths between 100-150 nucleotides Pull-down of cross-linked RNAs was performed by adding 10 μg of total RNA to 100 μL of azide-disulfide agarose beads (Click Chemistry Tools, 1238-2) pre-washed with 25 mM HEPES, pH 7.0. The click reaction and pull-down were completed as described in “In Vitro Chemical-Crosslinking and Isolation by Pull-down (Chem-CLIP) with Fluorescently Labeled RNA”. The pulled down RNA was purified by RNA CleanXP beads (Beckman, A66514) per manufacturer's protocol.
For dose response studies, cells were treated with varying concentration of F1 (1, 5, 20 μM) as described above for 16 h. For time course studies, cells were treated with 20 μM of for 1, 4, 8, or 16 h. With the exception of compound concentration or time at which total RNA was harvested, the remaining steps of the protocol were completed as described above for both concentration- and time-dependent studies.
as §1

human transcriptome = test: Chem-CLIP-Map-Seq transcriptome-wide target profiling in live MDA-MB-231 cells; format: cell-based; conditions: 20 μM, 16 h
Procedure: Additional studies were performed in live MDA-MB-231 cells to profile the cellular targets as well as the small molecule binding site within them, via Chem-CLIP-Map-Seq,^21 which had not previously been applied transcriptome-wide. After treatment (20 μM; 16 h) and cross-linking, total RNA was harvested and fragmented prior to pull-down (FIG. 2A). Random fragmentation was completed first to: 1) reduce sequence bias in library preparation, 2) reduce background signal in the RNA-seq analysis; and 3) allow for only the regions bound by the small molecules to be pulled down rather than the entire transcript, identifying both the target and the binding site within it. In parallel, a control diazirine probe that lacks an RNA-binding functionality (FIG. 2B) was used to identify targets that non-specifically react with the cross-linking moiety, where cross-linking is not driven by the RNA-binding elements.
Genrich uses a null model with a log-normal distribution to calculate p values by comparing sequencing runs of the same RNA sample before and after pull-down.
as §2
RNA-seq Library Preparation and Data Analysis. The quality of the pulled down RNA was analyzed by using an Agilent 2100 Bioanalyzer RNA nanochip as well as to confirm fragment lengths. RNA concentration was quantified by Qubit 2.0 Fluorometer (Invitrogen). The input RNA (200 ng) was depleted of ribosomal RNA with NEBNext rRNA Depletion Module (E6310) according to manufacturer's recommendations. Library preparation was performed with NEBNext Ultra II Directional RNA kit (E7760) per manufacturer's protocols. Briefly, the rRNA-depleted samples were reverse transcribed with random hexamer primers to generate first strand cDNA, followed by second strand synthesis with dUTP instead of dTTP. The cDNA was end repaired and adenylated at their 3′ ends, followed by adaptor ligation. The strand information of the RNA was preserved by using USER enzyme (Uracil-specific excision reagent) to degrade the second strand. The cDNA was then PCR amplified with barcoded Illumina-compatible primers to generate the final libraries. These libraries were loaded into a NextSeq 500 v2.5 flow cell and sequenced with 2×40 bp paired-end chemistry. All fastq files were aligned to the human genome by STAR.^9 The output bam files were processed by Genrich (v0.6.1, available at https://github.com/jsh58/Genrich) for peak calling to identify regions of enrichment (p<0.001 and False Discovery Rate=1%). Fold enrichment was calculated by Deeptool^10 and visualized by IGV browser.^11 A minimum read count of 5 and a minimum fold enrichment of 1.5 were applied filter to filter out low-confidence peaks.

| SMILES | effect on SQSTM1 mRNA levels (SQSTM1 mRNA) | decrease of QSOX1-a mRNA levels (QSOX1-a mRNA) | enrichment of QSOX1 mRNA (QSOX1 mRNA; 5 μM, 16 h incubation) | enrichment of QSOX1 mRNA (QSOX1 mRNA; 20 μM, 1 h incubation) | enrichment of QSOX1 mRNA (QSOX1 mRNA; 20 μM, 4 h) | enrichment of QSOX1 mRNA (QSOX1 mRNA; 20 μM, 8 h and 16 h time points) | enrichment of QSOX1 mRNA (QSOX1 mRNA; 20 μM, 16 h incubation) | largest enrichments (two transcripts) (human transcriptome) | number of transcripts enriched after eliminating transcripts also bound by the control diazirine (human transcriptome) |
| --- | --- | --- | --- | --- | --- | --- | --- | --- | --- |
| CCOC(=O)C1=C(Nc2ccccc2)S/C(=C\c2ccc(OCCOCCOCCOCCNC(=O)CCC(=O)N(C)[C@H]3CC[C@@H](c4ccc(Cl)c(Cl)c4)c4ccccc43)c(O)c2)C1=O [Compound F1-RIBOTAC] | No significant effect | ~35% | – | – | – | – | – | – | – |
| C#CCCC1(CCC(=O)N(C)[C@H]2CC[C@@H](c3ccc(Cl)c(Cl)c3)c3ccccc32)N=N1 [Compound F1] | – | – | ~6 fold | no enrichment | ~4 fold | plateauing | ~12 fold | > 12 fold | 51 |
